Assay results taken from patent US20260200924A1, “CANNABINOID RECEPTOR 1 ANTAGONISTS AND USES” (RESEARCH TRIANGLE INSTITUTE, priority 2022, published 2026).
pKd, pKi: −log10 of the molar value.

What was measured:
[1] = molecular target: T1, human CB1 (Homo sapiens, UniProt P21554); test: radioligand displacement assay using [3H]CP55940 in CHO cell membrane preparations; format: binding; conditions: [3H]CP55940 displacement, CHO cell membranes overexpressing human CB1; read-out: Ki hCB1
T1 construct: expressed in transfected cells; host or cells: CHO cells co-expressing Gqα16
T1 sequence (P21554 whole entry): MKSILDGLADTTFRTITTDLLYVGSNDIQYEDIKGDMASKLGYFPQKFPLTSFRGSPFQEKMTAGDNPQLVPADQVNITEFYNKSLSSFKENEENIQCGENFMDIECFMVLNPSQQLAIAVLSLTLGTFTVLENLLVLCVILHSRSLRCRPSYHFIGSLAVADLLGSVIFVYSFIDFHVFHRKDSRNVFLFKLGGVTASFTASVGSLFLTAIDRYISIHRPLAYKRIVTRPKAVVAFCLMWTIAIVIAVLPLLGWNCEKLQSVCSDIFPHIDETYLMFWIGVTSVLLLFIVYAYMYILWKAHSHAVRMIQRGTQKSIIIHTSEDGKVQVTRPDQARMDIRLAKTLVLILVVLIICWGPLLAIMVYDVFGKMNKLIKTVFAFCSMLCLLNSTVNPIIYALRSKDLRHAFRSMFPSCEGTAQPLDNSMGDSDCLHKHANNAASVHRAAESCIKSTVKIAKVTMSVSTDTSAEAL
Text: (§1) See Ki values above, based on radioligand displacement assay using ^3H-CP55940, a synthetic cannabinoid, (−)-cis-3-[2-hydroxy-4-(1,1-dimethylheptyl)phenyl]-trans-4-(3-hydroxypropyl)cyclohexanol, which is a compound commonly used to study the endocannabinoid system.

[2] = HLM stability; format: in vitro ADME; conditions: for HLM HL: HLM half-life; for microsomal CLint: human, liver microsomes, HLM clearance, read-out: HLM Cl
[3] = molecular target: T1, human CB1; test: functional fluorescent calcium mobilization assay, antagonism of CP55,940 (Ke); format: cell-based; conditions: for pKd: apparent equilibrium dissociation constant, CHO cells expressing human CB1 along with Gqα16, agonist CP55,940, read-out: Ke hCB1
Procedure: (§2) A functional fluorescent calcium mobilization was performed in CHO cells expressing human CB1 along with Gqα16. In FIG. 1A, a concentration-dependent increase in fluorescence upon treatment with the CB1 agonist CP55,940 is shown (solid line/triangle markers). […] The EC50 values in the presence and absence of the antagonist are used to calculate antagonist apparent equilibrium dissociation constant (Ke). Suppression of basal signaling in the absence of any stimulation/agonism was measured using the same approach. […] Provided data are representative of a minimum of three experiments and were fitted using non-linear regression analyses in GraphPad Prism.

[4] = molecular target: human CB2 (Homo sapiens, UniProt P34972); test: radioligand displacement assay using [3H]CP55940 in CHO cell membrane preparations (CB2, for selectivity); format: binding; conditions: ratio of Ki human CB2 / human CB1
Chain of human CB2 (P34972 whole entry): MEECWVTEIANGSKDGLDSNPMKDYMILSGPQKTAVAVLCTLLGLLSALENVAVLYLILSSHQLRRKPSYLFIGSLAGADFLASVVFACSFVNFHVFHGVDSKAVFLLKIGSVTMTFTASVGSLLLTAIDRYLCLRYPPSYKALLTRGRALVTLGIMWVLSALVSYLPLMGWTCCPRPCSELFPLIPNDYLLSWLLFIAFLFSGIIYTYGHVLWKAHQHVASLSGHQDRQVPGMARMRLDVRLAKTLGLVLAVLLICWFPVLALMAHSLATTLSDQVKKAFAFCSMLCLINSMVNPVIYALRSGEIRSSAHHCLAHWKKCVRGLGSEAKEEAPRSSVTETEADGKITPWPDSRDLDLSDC
Text: as §1

[5] = system: C57BL6 male mice; test: THC drug discrimination model; format: in vivo
Text: Drug discrimination is a behavioral model of the interoceptive effects of a compound. This pharmacologically selective model has high predictive validity, producing a strong correlation between drugs that have sharing discriminative stimulus properties in animals and drugs that humans identify as having similar subjective effects. FIG. 3 provides the results of this study, in which C57BL6 male mice (n=8) were trained to discriminate the reference drug (THC) using a discrimination procedure similar to that described in Wiley et al., Neuropharmacology 75, 145-154 (2013), Van et al., Eur. J. Pharmacol. 615, 102-107, and Wiley et al., J. Pharmacol. Exp. Ther. 354, 328-339 (2015), which are incorporated herein by reference in their entireties. For each session, the percentage of responses on the drug-associated lever and response rate response(s) were calculated.

[6] = system: male C57BL/6J mice; test: reversal of diet-induced obesity (DIO) in mice; format: in vivo; conditions: oral, 1x daily, 5 days per week
Procedure: Preconditioned male C57BL/6J mice were purchased from the Jackson Laboratories (Bar Harbor, Maine) at 18 weeks of age. These animals were maintained either on ad libitum standard diet (SD) with 10% fat (D12450B) or on 60% high fat diet (HFD; D12492) from Research Diets (New Brunswick, NJ.) Animals were dosed by intragastric gavage once daily Monday-Friday (5 days per week) with either vehicle (0.5% sodium carboxymethylcellulose with 1% NMP and 0.3% Tween 80 in de-ionized water) or Compound 3 suspended in the vehicle. Body weights were recorded at regular intervals. Organs were removed and processed as has been described in the legend of FIG. 4. Biomarkers of efficacy were measured including circulating enzymes, liver weight and liver adiposity as indicated.
Data were reported as mean (FIG. 4A) or mean and range (FIGS. 4B and 4C). […] Hepatic statosis was reduced, as assessed using Oil Red O staining (FIG. 4G), with representative images shown as FIGS. 4H, 4I, and 4J. Significance was calculated using ANOVA with Fisher's test (p<0.05*, 0.01**, 0.001***, 0.0001****).

[7] = molecular target: T2, CB1 receptor (Mus musculus, UniProt P47746); test: PET target engagement with CB1 radiotracer 11C-JHU75528; format: in vivo; conditions: male and female B6 mice, IP pretreatment
T2 construct: from tissue; host or cells: brain of living B6 mice (in vivo PET)
T2 sequence (P47746 whole entry): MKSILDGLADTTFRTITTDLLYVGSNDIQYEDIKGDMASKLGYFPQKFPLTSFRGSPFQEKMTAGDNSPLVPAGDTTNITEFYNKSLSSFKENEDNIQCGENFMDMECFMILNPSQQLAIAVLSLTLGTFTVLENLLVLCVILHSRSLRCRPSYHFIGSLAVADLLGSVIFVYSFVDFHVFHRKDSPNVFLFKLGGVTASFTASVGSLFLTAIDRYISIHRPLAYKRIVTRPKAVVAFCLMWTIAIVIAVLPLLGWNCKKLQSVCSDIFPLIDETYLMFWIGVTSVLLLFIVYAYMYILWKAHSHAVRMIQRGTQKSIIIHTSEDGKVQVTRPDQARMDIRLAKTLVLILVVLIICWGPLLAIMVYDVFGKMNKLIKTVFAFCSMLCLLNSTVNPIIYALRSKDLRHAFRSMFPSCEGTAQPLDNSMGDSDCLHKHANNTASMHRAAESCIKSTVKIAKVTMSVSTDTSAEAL
Procedure: FIG. 5A provides a representative image of target specificity of Compound 3 for the CB1 receptor in mice along with quantification. […] The well-characterized CB1 radiotracer ^11C-JHU75528 was used for this purpose. A baseline response for each animal (2 male and 2 female mice) was first established using the vehicle and tracer (~10 MBq in 0.1-0.15 ml volume, tail vein catheter). Following a 48-hr washout, animals were administered Compound 3 via intraperitoneal (IP) injection followed by the probe. PET image acquisition by dynamic scanning was performed for 65 min after the second injection with energy window of 350-700 KeV. […] The PET images were normalized to the standardized uptake value (SUV) unit. Two-tissue compartmental model was applied using the PKIN module in PMOD 4.0 software. See, e.g., FIG. 5B, where quantification of the signal confirmed a blocking effect on cerebral uptake. Compound 3 blocked ^11C-JHU75528 uptake, confirming in vivo activity.

[8] = molecular target: T1, human CB1; test: suppression of basal signaling in fluorescent calcium mobilization assay (inverse agonism); format: cell-based
Procedure: as §2, with “Gqα16.” for “Gqα16. In FIG. 1A, a concentration-dependent increase in fluorescence upon treatment with the CB1 agonist CP55,940 is shown (solid line/triangle markers).”

SMILES | pKi [1] | HLM HL [2] [min] | microsomal CLint [2] [µL/min/mg] | pKd [3] | Selectivity Ki (CB2/CB1) [4] | other results
O=C(Cc1ccc(F)cc1)NC1CCN(c2ncnc3c2nc(-c2ccccc2Cl)n3-c2ccc(Cl)cc2)CC1 [Compound 2, N-{1-[8-(2-Chlorophenyl)-9-(4-chlorophenyl)-9H-purin-6-yl]piperidin-4-yl}-2-(4-fluorophenyl)acetamide] | 8.85 | 150 | 8 | 9.00 | 210 | –
O=C(Cc1ccc(F)cc1F)NC1CCN(c2ncnc3c2nc(-c2ccccc2Cl)n3-c2ccc(Cl)cc2)CC1 [Compound 3, N-{1-[8-(2-Chlorophenyl)-9-(4-chlorophenyl)-9H-purin-6-yl]piperidin-4-yl}-2-(2,4-difluorophenyl)acetamide] | 8.96 | 133 | 9 | 9.10 | 510 | response rates ([5]; compared to controls): not significantly altered; maximum inhibition of THC drug discrimination ([5]; compared with rimonabant): comparable to that of rimonabant; THC drug discrimination ([5]; mice trained on 5.6 mpk THC, 3, 5.6 and 10 mpk antagonist): antagonize; body weight [6]: significantly reduced; circulating transaminase ALT [6]: reduce; circulating transaminase AST [6]: reduce; hepatic cholesterol content [6]: decrease; hepatic steatosis (Oil Red O staining) [6]: reduced; epididymal adipose weight ([6]; normalized to tibia length): significantly reduced; liver weight ([6]; normalized to tibia length): significantly reduced; antagonism: shift of the CP55,940 curve ([3]; pre-incubation with antagonist): rightward shift; 11C-JHU75528 cerebral uptake (PET) [7]: blocked; effect on basal signaling (inverse agonism) ([8]; absence of any stimulation/agonism): partial inverse agonist; Emax ([8]; read-out: partial suppression of maximal response (basal signaling), % of rimonabant Emax): ~30%
CC1(NC(=O)Cc2ccc(F)cc2)CCN(c2ncnc3c2nc(-c2ccccc2Cl)n3-c2ccc(Cl)cc2)CC1 [Compound 5, N-{1-[8-(2-Chlorophenyl)-9-(4-chlorophenyl)-9H-purin-6-yl]-4-methylpiperidin-4-yl}-2-(4-fluorophenyl)acetamide] | – | – | – | 8.74 | – | –
CC1(NC(=O)Cc2ccccc2F)CCN(c2ncnc3c2nc(-c2ccccc2Cl)n3-c2ccc(Cl)cc2)CC1 [Compound 4, N-{1-[8-(2-Chlorophenyl)-9-(4-chlorophenyl)-9H-purin-6-yl]-4-methylpiperidin-4-yl}-2-(2-fluorophenyl)acetamide] | – | – | – | 8.42 | – | –
O=C(Cc1ccccc1F)NC1CCN(c2ncnc3c2nc(-c2ccccc2Cl)n3-c2ccc(Cl)cc2)CC1 [Compound 1, N-{1-[8-(2-Chlorophenyl)-9-(4-chlorophenyl)-9H-purin-6-yl]piperidin-4-yl}-2-(2-fluorophenyl)acetamide] | 8.82 | 146 | 9 | 9.00 | 110 | –
